Experimental data as given in US12628802B2, “Genetically modified rat having PKHD1L1 gene with point mutation and methods for its construction, detection and use” (HUASHAN HOSPITAL AFFILIATED TO FUDAN UNIVERSITY, priority 2022, dated 2026).
Entries after “also recorded” stand apart in the source; their conditions may differ.

Legend:
wild-type (WT) rats = assay: PTZ-induced epilepsy model, wild-type rats; assay type: in vivo, rat
Description: (§1) Subsequently, the epileptic susceptibility of PKHD1L1+/− rats was studied using a PTZ-induced epilepsy model: A total of 10 male PKHD1L1+/− rats and 10 male wild-type (WT) rats with body weights matched with age (in weeks) were selected for inducing epileptic seizures with PTZ (40 mg/kg). The dose of PTZ selected is lower than the conventional dose in such animal modeling. Only 2 out of the 10 wild-type rats (20%), but 7 out of the 10 (70%) PKHD1L1+/− rats, were induced to have grand mal seizures of grade 4-5 (see FIG. 13A).

PKHD1L1+/− rats = assay: PTZ-induced epilepsy model, PKHD1L1+/- rats; assay type: in vivo, rat; settings: PTZ 40 mg/kg
Description: as §1

[1] = test system: pyramidal neurons in the cerebral cortex; assay: Patch clamp recording of sEPSC and sIPSC of cortical pyramidal neurons in brain slices; assay type: cell-based, rat; settings: epilepsy group (PKHD1L1+/− rats) after H89 treatment
Text: Results of Electrophysiological Examination of Transgenic Animal Brain Slices
In transgenic animals (PKHD1L1+/− rats), neuronal excitability increased, and H89 reduced the frequency of spontaneous excitatory post synaptic currents (sEPSC) in pyramidal neurons in the cerebral cortex.
A patch clamp technique was used to record sEPSC and sIPSC (e.g., spontaneous inhibitory post synaptic currents) of cortical pyramidal neurons […], and to observe the changes in excitatory synaptic transmission and inhibitory synaptic transmission of pyramidal neurons in each group of rats, so as to reflect any changes in neuronal excitability.

[2] = test system: pyramidal neurons in the cerebral cortex; assay: Recording of Na+ and K+ currents in pyramidal neurons in brain slices; assay type: cell-based, rat; settings: control, epilepsy and epilepsy+H89 groups compared
Description: Neuronal excitability is related to Na+ and K+ currents, so the Na+ and K+ currents in pyramidal neurons in the cerebral cortex of each group of rats (e.g., PKHD1L1+/− and wild-type) were recorded. As shown in FIGS. 15A-B, there was no difference in Na+ and K+ currents in pyramidal neurons of rats among all groups (3 young rats in each group, 6 cells in the control [WT] group, 6 cells in the epilepsy [e.g., PKHD1L1+/−] group, and 6 cells in the epilepsy+H89 group), […].

[3] = test system: pyramidal neurons in the cerebral cortex; assay: Recording of the action potential of pyramidal neurons in brain slices; assay type: cell-based, rat
Description: H89 can reduce the excitability of pyramidal neurons in the cerebral cortex of rats with epilepsy. In order to further confirm the excitability of pyramidal neurons in the cerebral cortex, the action potential of pyramidal neurons was recorded. Action potential can intuitively reflect the excitability of neurons. […] Compared with the control group (e.g., WT rats), the positive potential of the epileptic group was decreased after H89 treatment, and the neuronal potential was increased after H89 treatment (P>0.05). There was no difference in the peak and half-duration of the action potential between the two groups. […] It was shown that a reduced neuron action potential threshold in epileptic rats indicates […] of pyramidal neurons, and H89 reversed this trend and improved epileptic symptoms in rats (FIGS. 16A-F).

Compound	rats induced to have grand mal seizures of grade 4-5 (wild-type (WT) rats; PTZ 40 mg/kg, 10 male wild-type rats) [%]	mean dose of PTZ required to exhibit grade 4-5 seizures (wild-type (WT) rats; additional 5 mg/kg at 15-minute intervals, wild-type rats compared with PKHD1L1+/− rats)	rats induced to have grand mal seizures of grade 4-5 (PKHD1L1+/− rats; 10 male PKHD1L1+/− rats) [%]	maximum seizure level reached (PKHD1L1+/− rats; PKHD1L1+/− rats compared with wild-type rats)	sEPSC amplitude [1]	sEPSC frequency [1]	K+ currents in pyramidal neurons [2]	Na+ currents in pyramidal neurons [2]	half-duration of the action potential ([3]; between groups)	peak of the action potential ([3]; between groups)	action potential threshold ([3]; epilepsy group after H89 treatment, P<0.05)	positive post-potential (neuronal potential) of the action potential ([3]; epilepsy group after H89 treatment, P>0.05)
C1CCc2nnnn2CC1 [PTZ, pentylenetetrazole]	20	statistically significantly higher	70	significantly higher	–	–	–	–	–	–	–	–
O=S(=O)(NCCNC/C=C/c1ccc(Br)cc1)c1cccc2cnccc12 [H89]	–	–	–	–	decreased	reduced; also recorded: decreased	no difference	no difference	no difference	no difference	increased	increased
